Data as given in BigSolDB 2.1.

CC1=NN(c2ccccc2)C(=O)C1
solubility (mole fraction)
Settings | 283.15 K | 288.15 K | 293.15 K | 298.15 K | 303.15 K | 308.15 K | 313.15 K | 318.15 K | 323.15 K | 328.15 K
in 1,2-dichloroethane | 0.0262 | 0.0304 | 0.0358 | 0.0417 | 0.0496 | 0.058 | 0.0676 | 0.0767 | 0.089 | –
in 2-butanone | 0.02 | 0.024 | 0.0313 | 0.0372 | 0.0437 | 0.0557 | 0.0678 | 0.081 | 0.121 | –
in MIBK | 0.0107 | 0.0138 | 0.0198 | 0.0243 | 0.0311 | 0.0365 | 0.0414 | 0.0495 | 0.0609 | –
in dimethyl carbonate | 0.0118 | 0.0138 | 0.0166 | 0.0201 | 0.0257 | 0.0316 | 0.0384 | 0.0458 | 0.0573 | –
in ethyl lactate | 0.0293 | 0.0319 | 0.0352 | 0.0392 | 0.0424 | 0.0486 | 0.0531 | 0.0594 | 0.0735 | –
in isobutyl acetate | – | 0.0109 | 0.0123 | 0.0142 | 0.0162 | 0.0192 | 0.0229 | 0.0268 | 0.0309 | 0.0367
in isopentanol | 0.0191 | 0.021 | 0.023 | 0.0261 | 0.0282 | 0.0312 | 0.0353 | 0.0403 | 0.0466 | –
in isopropyl acetate | 0.00972 | 0.0117 | 0.0141 | 0.0162 | 0.0187 | 0.0223 | 0.0265 | 0.032 | 0.036 | –
in methyl acetate | 0.0161 | 0.0182 | 0.0201 | 0.0237 | 0.0266 | 0.0299 | 0.0349 | 0.0422 | 0.0477 | –
in n-butyl acetate | 0.0124 | 0.0142 | 0.0164 | 0.0195 | 0.0227 | 0.0265 | 0.0305 | 0.037 | 0.0423 | –
in n-hexane | 0.000173 | 0.000226 | 0.000394 | 0.00052 | 0.000662 | 0.000963 | 0.00136 | 0.00172 | 0.00211 | –
in n-propyl acetate | 0.0142 | 0.0169 | 0.0197 | 0.0228 | 0.0276 | 0.0318 | 0.0384 | 0.0451 | 0.0551 | –
